Like-named read-outs stand apart in the source and are kept apart here.
Key:
[1] = system: Caco-2 cell monolayers; experiment: Caco-2 cell permeability assay of peramivir with permeability enhancers; settings: for Fold-Enhancement Over Control / ng peramivir transported/min: peramivir 15 μg/mL
[2] = system: viral neuraminidase; settings: depending on the influenza strain; based on concentrations required for 50% inhibition of neuraminidase activity in vitro; cited from earlier work
[3] = system: avian influenza virus (H5N1); settings: cited from earlier work
[4] = human, in vivo; cited from earlier work
[5] = system: influenza A and B; settings: oral formulation, phase III clinical trial; cited from earlier work
[6] = system: Caco-2 cells; experiment: cytotoxicity of PPS at the concentrations used; format: cell-based; settings: in the concentrations used (0.001% to 0.01%)
[7] = system: Caco-2 cell monolayers
[8] = enhancer concentration 0.05% in HBSS
[9] = enhancer concentration 0.10% in HBSS
[10] = enhancer concentration 0.20% in HBSS

CN1CCNCC1 [N-Methylpiperazine, N-methylpiperazine]
peramivir permeability enhancement in Caco-2 cell assays (in words) [1]: negative

CCC(CC)[C@H](NC(C)=O)[C@@H]1[C@H](O)[C@@H](C(=O)O)C[C@H]1NC(=N)N [peramivir, (1S,2S,3S,4R)-3-[(1S)-1-Acetamido-2-ethyl-butyl]-4-(diaminomethylideneamino)-2-hydroxy-cyclopentane-1-carboxylic acid]
potency as neuraminidase inhibitor relative to oseltamivir (Tamiflu®) and zanimivir [2]: 2 to 10 times | sensitivity to peramivir [3]: sensitive | oral bioavailability [4]: very poor oral bioavailability | antiviral activity against influenza A and B [5]: did not reach statistical significance

CCCCCCCC/C=C\CCCCCCCC(=O)OCCOCC(OCCO)C1OCC(OCCO)C1OCCO (stereo not drawn) [Tween-80]
peramivir permeability enhancement in Caco-2 cell assays (in words) [1]: negative

CCCCCCCCCCCCCCCC[N+](C)(C)CCCS(=O)(=O)[O-] [PPS, 3-(N,N-dimethylpalmitylammonio)propane sulfonate]
peramivir permeability (in words) ([1]; PPS varying from 0.001% to 0.01% final concentration): substantially increased peramivir permeability | cytotoxicity [6]: not cytotoxic

O=C([O-])c1ccccc1O.[Na+] [sodium salicylate]
peramivir permeability enhancement in Caco-2 cell assays (in words) [1]: negative

phosphatidylcholine
peramivir permeability enhancement in Caco-2 cell assays (in words) [1]: some potential for peramivir permeability enhancement | Fold-Enhancement Over Control [1, 8]: 2.11 fold | ng peramivir transported/min [1, 8]: 0.4 ng/min | Fold-Enhancement Over Control [1, 9]: 2.11 fold | ng peramivir transported/min [1, 9]: 0.4 ng/min | Fold-Enhancement Over Control [1, 10]: 7 fold | ng peramivir transported/min [1, 10]: 1.33 ng/min

OCC(O)CO [Glycerol, glycerol]
peramivir permeability (in words) [7]: substantial increase in peramivir permeability | peramivir permeability enhancement ([7]; human): Less than 150%

— patent US9579383B2, “Formulations for enhanced bioavailability of orally administered polar agents” (ALA WAI PHARMA, INC., priority 2007, dated 2017)
